Drawing on patent US8501754B2, “Quinazolinamide derivatives” (MERCK PATENT GmbH, priority 2007, dated 2013), this text covers IC50 for 13 compounds.

For the assay, the target named is Recombinant human HSP90a (Homo sapiens, UniProt P07900). The experiment in a line: radioligand filter binding test ([3H]17AAG competition) for HSP90 inhibition. As to conditions: competition with [3H]17AAG 0.08 μM, HSP90 1.5 μg/assay, 22° C., 30 min. The source says:
Test Method for the Measurement of HSP90 Inhibitors
The binding of geldanamycin or 17-allylamino-17-demethoxygeldanamycin (17AAG) to HSP90 and competitive inhibition thereof can be utilized in order to determine the inhibitory activity of the compounds according to the invention (Carreras et al. 2003, Chiosis et al. 2002).
In the specific case, a radioligand filter binding test is used. The radioligand used here is tritium-labelled 17-allylaminogeldanamycin, [3H]17AAG. This filter binding test allows a targeted search for inhibitors which interfere with the ATP binding site.
Recombinant human HSP90a (E. coli expressed, 95% purity);
[3H]17AAG (17-allylaminogeldanamycin, [allylamino-2,3-^3H. Specific activity: 1.11×10^12 Bq/mmol (Moravek, MT-1717);
HEPES filter buffer (50 mM HEPES, pH 7.0, 5 mM MgCl2, BSA 0.01%) Multiscreen FB (1 μm) filter plate (Millipore, MAFBNOB 50).
The 96-well microtitre filter plates are firstly irrigated and coated with 0.1% of polyethylenimine.
The test is carried out under the following conditions:
Reaction temperature 22° C.
Reaction time: 30 min., shaking at 800 rpm
50 mM HEPES HCl, pH 7.0, 5 mM MgCl2, 0.01% (w/v) of BSA
At the end of the reaction, the supernatant in the filter plate is removed by suction with the aid of a vacuum manifold (Multiscreen Separation System, Millipore), and the filter is washed twice.
The filter plates are then measured in a beta counter (Microbeta, Wallac) with scintillator (Microscint 20, Packard).
“% of control” is determined from the “counts per minutes” values, and the IC-50 value of a compound is calculated therefrom.
Usually IC50 stands for the point on the concentration scale where inhibition reaches its midpoint. On to `Nc1nc(C(=O)N2Cc3ccccc3C2)c2cc(N3CCN(C(=O)OCc4ccccc4)CC3)ccc2n1` [Compound A939], for which the half-inhibitory concentration (IC50) was in the range of 10 to 1000 nM.

With `CCN(CC)C(=O)c1nc(N)nc2ccc(C)cc12` [Compound A77, 2-Amino-6-methyl-4-diethylcarbamoylquinazoline], the IC50 is 1000 to 10000 nM.

Consider `Nc1nc(C(=O)N2Cc3ccccc3C2)c2cc(NC3CCC(O)CC3)ccc2n1` (stereo not shown) [Compound A951], for which the IC50 was 1000 to 10000 nM.

Turning to `Nc1nc(C(=O)N2Cc3ccccc3C2)c2cc(-c3ccncc3)ccc2n1` [Compound A922, 2-Amino-6-(pyridin-4-yl)-4-(1,3-dihydroisoindol-2-ylcarbonyl)quinazoline], the IC50 fell in the range of 10 to 1000 nM.

`CN(C)C(=O)c1nc(N)nc2ccccc12` [Compound A5, 2-Amino-4-dimethylcarbamoylquinazoline]: the IC50 was more than 10000 nM.

As to `CN(C)Cc1ccccc1-c1ccc2nc(N)nc(C(=O)N3Cc4ccccc4C3)c2c1` [Compound A975], the IC50 fell in the range of 10 to 1000 nM.

`Nc1nc(C(=O)N2Cc3ccccc3C2)c2cc(NC3CCCCC3)ccc2n1` [Compound A949]: the IC50 fell in the range of 10 to 1000 nM.

For the compound `CN(C)CCNCc1ccccc1-c1ccc2nc(N)nc(C(=O)N3Cc4ccccc4C3)c2c1` [Compound A973], the IC50 is 10 to 1000 nM.

As for `CN(C)CCN(C)S(=O)(=O)c1ccccc1-c1ccc2nc(N)nc(C(=O)N3Cc4ccccc4C3)c2c1` [Compound A982], the IC50 is 10 to 1000 nM.

Consider `CN1CCN(Cc2ccccc2-c2ccc3nc(N)nc(C(=O)N4Cc5ccccc5C4)c3c2)CC1` [Compound A970, {2-amino-6-[2-(4-methylpiperazin-1-ylmethyl)phenyl]quinazolin-4-yl}-(1,3-dihydroisoindol-2-yl)methanone], for which the half-maximal inhibitory concentration (IC50) fell in the range of 10 to 1000 nM.

Turning to `CN1CCN(S(=O)(=O)c2ccccc2-c2ccc3nc(N)nc(C(=O)N4Cc5ccccc5C4)c3c2)CC1` [Compound A980, {2-amino-6-[2-(4-methylpiperazine-1-sulfonyl)phenyl]quinazolin-4-yl}-(1,3-dihydroisoindol-2-yl)methanone], the IC50 was in the range of 10 to 1000 nM.

Take `CN1CCN(c2ccc3nc(N)nc(C(=O)N4Cc5ccccc5C4)c3c2)CC1` [Compound A941]: the IC50 lay within 1000 to 10000 nM.

With `Nc1nc(C(=O)N2Cc3ccccc3C2)c2cc(-c3ccncc3)ccc2n1` [Compound A923, 2-Amino-6-(pyridin-4-yl)-4-(1,3-dihydroisoindol-2-ylcarbonyl)quinazoline], the IC50 lay in the range of 1000 to 10000 nM.
